Source: patent US20260191863A1, “PYRROLOPYRIMIDINE COMPOSITIONS FOR TREATMENT OF ITK MEDIATED CONDITIONS” (ACLARIS THERAPEUTICS, INC., priority 2022, published 2026)
Read-outs that look alike come from different tables or passages of the source.

Test: Phase 1 multiple ascending dose (MAD) study: pharmacokinetics
Assay type: in vivo, human
Conditions: plasma, oral; for AUC(0-inf): read-out: Geometric Mean AUCINF_obs; for AUC(0-t): read-out: Geometric Mean AUC_0-12; for Tmax: read-out: Geometric Mean Tmax; for AUC: read-out: AUC0-τ
Excerpt: Secondary Endpoints—Compound I plasma concentrations and PK parameters: AUC0-tau, AUC0-inf, Ctrough, Cmax, tmax, Kel, t1/2, CLss/F, Vss/F, Rae.
Overall Design—This was a randomized, Investigator and participant-blind. Sponsor-unblinded, placebo-controlled study designed to evaluate the safety, tolerability, PK, and PD of Compound I in healthy participants. The study consisted of multiple cohorts assessing ascending doses of Compound I.
Approximately 60 participants were enrolled into 5 cohorts. At each dose level/cohort, a total of 10 participants were randomized to receive 2 weeks of oral doses of Compound I (n=8) or placebo (n=2). In Cohort 3, 20 participants were randomized to receive multiple oral doses of Compound I QD (n=8), Compound I TID (n=8), placebo QD (n=2), or placebo TID (n=2).
The study started with a planned dose of 5 mg twice daily (BID). Escalation to the next higher cohort was dependent on safety and PK data from all participants in the previous cohorts and was based on data from at least 6 participants up to at least 48 hours after the last dose. In no instance did the dose escalation steps exceed 3-fold the prior dose level.

[1] = human, 5 mg, Cohort 1, 5 mg BID, Day 7
[2] = human, 5 mg, Cohort 1, 5 mg BID, Day 15
[3] = human, 15 mg, Cohort 2, 15 mg BID, Day 1
[4] = human, 15 mg, Cohort 2, 15 mg BID, Day 7
[5] = human, 15 mg, Cohort 2, 15 mg BID, Day 15
[6] = human, 25 mg, Cohort 4, 25 mg BID, Day 1
[7] = human, 25 mg, Cohort 4, 25 mg BID, Day 7
[8] = human, 25 mg, Cohort 4, 25 mg BID, Day 15
[9] = human, 30 mg, Cohort 3a, 30 mg QD, Day 1
[10] = human, 30 mg, Cohort 3a, 30 mg QD, Day 7
[11] = human, 30 mg, Cohort 3a, 30 mg QD, Day 15
[12] = human, 40 mg, Cohort 5, 40 mg BID, Day 1
[13] = human, 40 mg, Cohort 5, 40 mg BID, Day 7
[14] = human, 40 mg, Cohort 5, 40 mg BID, Day 15

In the case of C=CC(=O)N1C[C@H](Nc2ncnc3[nH]cc([C@H]4CC4(F)F)c23)CC[C@@H]1C [Compound I, 1-((2S,5R)-5-((5-((R)-2,2-difluorocyclopropyl)-7H-pyrrolo[2,3-d]pyrimidin-4-yl)amino)-2-methylpiperidin-1-yl)prop-2-en-1-one], the AUC(0-inf) [1] is reported as 32 ng·h/mL, the AUC(0-t) [1] is reported as 32 ng·h/mL and the Cmax (human, 5 mg, Cohort 1, 5 mg BID, Day 7, read-out: Geometric Mean Cmax) is reported as 13 ng/mL. The Tmax [1] was 46.2 min, the AUC(0-inf) [2] was 32 ng·h/mL and the AUC(0-t) [2] was 32 ng·h/mL. It also gave a Cmax (human, 5 mg, Cohort 1, 5 mg BID, Day 15, read-out: Geometric Mean Cmax) of 12.5 ng/mL, a Tmax [2] of 46.2 min and an AUC(0-inf) [3] of 71 ng·h/mL. For the same molecule, the AUC(0-t) [3] was 71 ng·h/mL, the Cmax (human, 15 mg, Cohort 2, 15 mg BID, Day 1, read-out: Geometric Mean Cmax) was 28.8 ng/mL and the Tmax [3] was 48.6 min. The AUC(0-inf) [4] was 110 ng·h/mL, the AUC(0-t) [4] was 109 ng·h/mL and the Cmax (human, 15 mg, Cohort 2, 15 mg BID, Day 7, read-out: Geometric Mean Cmax) was 42.5 ng/mL. For the same molecule, the Tmax [4] was 46.2 min, the AUC(0-inf) [5] was 111 ng·h/mL and the AUC(0-t) [5] was 110 ng·h/mL. The Cmax (human, 15 mg, Cohort 2, 15 mg BID, Day 15, read-out: Geometric Mean Cmax) was 38.9 ng/mL, the Tmax [5] was 57.6 min and the Cmax (human, 15 mg, Human 15 mg, read-out: Cmax) was 38.9 ng/mL. The AUC(0-inf) [6] was 175 ng·h/mL, the AUC(0-t) [6] was 173 ng·h/mL and the Cmax (human, 25 mg, Cohort 4, 25 mg BID, Day 1, read-out: Geometric Mean Cmax) was 64.3 ng/mL. It also gave a Tmax [6] of 50.4 min, an AUC(0-inf) [7] of 265 ng·h/mL and an AUC(0-t) [7] of 260 ng·h/mL. The Cmax (human, 25 mg, Cohort 4, 25 mg BID, Day 7, read-out: Geometric Mean Cmax) was 89.6 ng/mL, the Tmax [7] was 48.6 min and the AUC(0-inf) [8] was 245 ng·h/mL. For the same molecule, the AUC(0-t) [8] was 240 ng·h/mL, the Cmax (human, 25 mg, Cohort 4, 25 mg BID, Day 15, read-out: Geometric Mean Cmax) was 81.8 ng/mL and the Tmax [8] was 42.6 min. It also gave a Cmax (human, 25 mg, Human 25 mg, read-out: Cmax) of 81.8 ng/mL, an AUC(0-inf) [9] of 312 ng·h/mL and an AUC(0-t) [9] of 308 ng·h/mL. The Cmax (human, 30 mg, Cohort 3a, 30 mg QD, Day 1, read-out: Geometric Mean Cmax) was 104 ng/mL, the Tmax [9] was 40.8 min and the AUC(0-inf) [10] was 375 ng·h/mL. For the same molecule, the AUC(0-t) [10] was 366 ng·h/mL, the Cmax (human, 30 mg, Cohort 3a, 30 mg QD, Day 7, read-out: Geometric Mean Cmax) was 124 ng/mL and the Tmax [10] was 52.2 min. For the same molecule, the AUC(0-inf) [11] was 400 ng·h/mL, the AUC(0-t) [11] was 392 ng·h/mL and the Cmax (human, 30 mg, Cohort 3a, 30 mg QD, Day 15, read-out: Geometric Mean Cmax) was 119 ng/mL. The Tmax [11] was 57.6 min, the Cmax (human, 30 mg, Human 30 mg, read-out: Cmax) was 119 ng/mL and the AUC(0-inf) [12] was 288 ng·h/mL. It also gave an AUC(0-t) [12] of 285 ng·h/mL, a Cmax (human, 40 mg, Cohort 5, 40 mg BID, Day 1, read-out: Geometric Mean Cmax) of 102 ng/mL and a Tmax [12] of 50.4 min. The AUC(0-inf) [13] was 487 ng·h/mL, the AUC(0-t) [13] was 480 ng·h/mL and the Cmax (human, 40 mg, Cohort 5, 40 mg BID, Day 7, read-out: Geometric Mean Cmax) was 158 ng/mL. For the same molecule, the Tmax [13] was 55.2 min, the AUC(0-inf) [14] was 484 ng·h/mL and the AUC(0-t) [14] was 472 ng·h/mL. The Cmax (human, 40 mg, Cohort 5, 40 mg BID, Day 15, read-out: Geometric Mean Cmax) was 138 ng/mL, the Tmax [14] was 63 min and the concentration at 6 h (human, 15 mg BID, steady-state, 6 hours post-dose) was 4.3 ng/mL. The concentration at 8 h (human, 25 mg BID, steady-state, 8 hours post-dose) was 5.7 ng/mL, the concentration at 11.5 h (human, 30 mg QD, steady-state, 11.5 hours post-dose) was ~4 ng/mL and the AUC (Human 15 mg) was 110 ng·h/mL. The AUC (Human 25 mg) was 240 ng·h/mL and the AUC (Human 30 mg) was 392 ng·h/mL.
